For 26 molecules, IC50 results are on record in patent publication US20230026271A1, “Piperazine Compounds for Inhibiting CPS1” (Eisai R&D Management Co., Ltd., priority 2019, published 2023).

The target of the test is T1, CPS1 (Homo sapiens, UniProt P31327).
T1 construct: The full length, human CPS1 gene was cloned into pFastBac HTA; His6 (from the pFastBac HTA vector); made in house; host or cells: SF21 insect cells (baculovirus, Bac-to-bac)
T1 sequence (P31327 39-1500): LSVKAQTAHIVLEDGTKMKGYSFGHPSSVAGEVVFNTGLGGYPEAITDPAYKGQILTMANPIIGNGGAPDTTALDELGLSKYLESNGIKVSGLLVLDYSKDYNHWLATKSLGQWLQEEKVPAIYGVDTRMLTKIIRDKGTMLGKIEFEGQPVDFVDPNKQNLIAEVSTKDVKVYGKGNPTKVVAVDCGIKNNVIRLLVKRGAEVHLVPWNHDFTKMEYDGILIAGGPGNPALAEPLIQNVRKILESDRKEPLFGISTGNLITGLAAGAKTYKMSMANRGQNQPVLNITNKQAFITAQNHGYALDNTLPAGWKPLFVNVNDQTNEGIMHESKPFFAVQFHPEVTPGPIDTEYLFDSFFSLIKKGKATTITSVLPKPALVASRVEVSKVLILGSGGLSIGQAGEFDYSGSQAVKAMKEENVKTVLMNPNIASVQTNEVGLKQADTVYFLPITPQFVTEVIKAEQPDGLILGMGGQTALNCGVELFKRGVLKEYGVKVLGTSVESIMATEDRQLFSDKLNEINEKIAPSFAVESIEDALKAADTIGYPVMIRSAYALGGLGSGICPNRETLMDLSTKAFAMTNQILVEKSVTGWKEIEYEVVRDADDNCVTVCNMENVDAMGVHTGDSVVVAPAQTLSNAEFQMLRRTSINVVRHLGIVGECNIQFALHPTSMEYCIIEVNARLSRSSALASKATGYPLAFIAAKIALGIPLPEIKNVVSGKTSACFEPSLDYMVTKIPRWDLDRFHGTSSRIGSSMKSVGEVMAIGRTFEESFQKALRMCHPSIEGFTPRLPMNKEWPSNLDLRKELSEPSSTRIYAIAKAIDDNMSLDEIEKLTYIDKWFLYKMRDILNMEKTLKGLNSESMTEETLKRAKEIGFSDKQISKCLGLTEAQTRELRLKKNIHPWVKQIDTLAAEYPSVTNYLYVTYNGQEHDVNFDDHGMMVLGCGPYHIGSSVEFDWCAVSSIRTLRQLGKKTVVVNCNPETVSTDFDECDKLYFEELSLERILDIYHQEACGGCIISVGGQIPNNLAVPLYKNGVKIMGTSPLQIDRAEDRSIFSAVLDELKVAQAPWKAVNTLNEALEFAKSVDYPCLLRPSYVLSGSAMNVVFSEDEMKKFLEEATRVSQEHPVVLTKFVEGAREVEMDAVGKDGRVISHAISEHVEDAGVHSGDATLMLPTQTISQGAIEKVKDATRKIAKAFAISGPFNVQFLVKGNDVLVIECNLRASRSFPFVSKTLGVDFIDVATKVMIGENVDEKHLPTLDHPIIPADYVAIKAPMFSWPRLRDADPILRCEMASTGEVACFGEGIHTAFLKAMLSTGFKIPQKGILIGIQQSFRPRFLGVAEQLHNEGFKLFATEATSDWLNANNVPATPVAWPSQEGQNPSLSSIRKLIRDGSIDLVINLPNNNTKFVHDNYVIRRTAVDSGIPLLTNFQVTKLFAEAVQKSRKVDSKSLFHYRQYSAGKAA
The test is described as follows: ADP-Glo endpoint assay measuring the ATPase activity of CPS1. The format is biochemical. The settings on record: geometric mean of a minimum of two values; 50 nM CPS1, 10 μM ATP, 0.2 mM NAG, 60 min at room temperature; read-out: ADPGlo IC50. The gist of the method:
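Full-length human His-tagged CPS1 from SF21 insect cells, 50 nM, preincubated 20 min with compound in pH 7.0 HEPES buffer containing KHCO3, (NH4)2SO3, MgCl2 and 0.2 mM NAG. Reaction started with 10 μM ATP, 60 min at room temperature; ADP formed detected by ADP-Glo luminescence.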
Background: ADP-Glo turns the ADP formed in a reaction into a luminescent signal.
By IC50 is commonly meant the concentration that gives 50% inhibition. On to `COc1ccc(C(=O)N2[C@H](C)CN(C(=O)c3cc4ccccc4[nH]3)C[C@H]2C)c(F)c1` [Compound 59, ((2R,6R)-4-(1H-indole-2-carbonyl)-2,6-dimethylpiperazin-1-yl)(2-fluoro-4-methoxyphenyl)methanone], for which the IC50 amounted to 5.58 µM.

As for `COc1ccc(C(=O)N2[C@H](C)CN(C(=O)c3c[nH]c4ccc(Cl)cc34)C[C@H]2C)c(F)c1` [Compound 61, (5-chloro-1H-indol-3-yl)((3R,5R)-4-(2-fluoro-4-methoxybenzoyl)-3,5-dimethylpiperazin-1-yl)methanone], the IC50 was 7.39 µM.

On to `COc1ccc(C(=O)N2[C@H](C)CN(c3ncnc4cc(OC)ccc34)C[C@H]2C)c(F)c1` [Compound 62, (2-fluoro-4-methoxyphenyl)((2R,6R)-4-(7-methoxyquinazolin-4-yl)-2,6-dimethylpiperazin-1-yl)methanone], for which the IC50 came to 10.5 µM.

Consider `COc1ccc(C(=O)N2C[C@@H](C)N(C(=O)c3ccc(OC)cc3)[C@H](C)C2)cc1` [Compound 63, ((2R,6R)-2,6-dimethylpiperazine-1,4-diyl)bis((4-methoxyphenyl)methanone)], for which the IC50 was 4.74 µM.

Turning to `COc1ccc(OC)c2[nH]c(C(=O)N3CCN(C(=O)Cc4c[nH]c5ccccc45)CC3)cc12` [Compound 64, 1-(4-(4,7-dimethoxy-1H-indole-2-carbonyl)piperazin-1-yl)-2-(1H-indol-3-yl)ethanone], the IC50 is 3.72 µM.

Take `COc1ccc(C(=O)N2[C@H](C)CN(C(=O)c3ccc(O)cc3F)C[C@H]2C)c(F)c1` [Compound 65, ((2R,6R)-4-(2-fluoro-4-hydroxybenzoyl)-2,6-dimethylpiperzin-1-yl)(2-fluoro-4-methoxyphenyl)methanone]: the concentration for half-maximal inhibition (IC50) was 3.79 µM.

With `COc1ccc(C(=O)N2C[C@@H](C)N(C(=O)c3ccc(Cl)cc3F)[C@H](C)C2)c(F)c1` [Compound 66, ((3R,5R)-4-(4-chloro-2-fluorobenzoyl)-3,5-dimethylpiperazin-1-yl)(2-fluoro-4-methoxyphenyl)methanone], the IC50 came out at 4.91 µM.

Turning to `COc1ccc(C(=O)N2C[C@@H](C)N(C(=O)c3cc(OC)ccc3F)[C@H](C)C2)c(F)c1` [Compound 67, ((2R,6R)-4-(2-fluoro-4-methoxybenzoyl)-2,6-dimethylpiperazin-1-yl)(2-fluoro-5-methoxyphenyl)methanone], the IC50 is 5.15 µM.

`COc1ccc(C(=O)N2CC(C)N(C(=O)c3ccc(OC)cc3F)C(C)C2)c(F)c1` (centres unmarked) [Compound 68, (2,6-dimethylpiperazine-1,4-diyl)bis((2-fluoro-4-methoxyphenyl)methanone)]: the IC50 was 6.34 µM.

On to `COc1ccc(C(=O)N2[C@H](C)CN(C(=O)c3ccc4c(c3)NCC4)C[C@H]2C)c(F)c1` [Compound 69, ((3R,5R)-4-(2-fluoro-4-methoxybenzoyl)-3,5-dimethylpiperazin-1-yl)(indolin-6-yl)methanone], for which the IC50 was 6.43 µM.

Take `COc1ccc(C(=O)N2C[C@@H](C)N(C(=O)c3ccc(C)c(O)c3)[C@H](C)C2)c(F)c1` [Compound 70]: the concentration for half-maximal inhibition (IC50) was found to be 8.71 µM.

Take `COc1ccc(C(=O)N2CC(C)N(C(=O)c3ccc(OC)cc3F)CC2C)c(F)c1` (centres unmarked) [Compound 71]: the IC50 was 9.97 µM.

Consider `COc1ccc(C(=O)N2[C@H](C)CN(C(=O)c3ccc(OC)c(O)c3)C[C@H]2C)c(F)c1` [Compound 72, ((3R,5R)-4-(2-fluoro-4-methoxybenzoyl)-3,5-dimethylpiperazin-1-yl)(3-hydroxy-4-methoxyphenyl)methanone], for which the IC50 was 11.5 µM.

`COc1ccc(C(=O)N2C[C@@H](C)N(C(=O)c3ccc4cc[nH]c4c3F)[C@H](C)C2)c(F)c1` [Compound 73, (7-fluoro-1H-indol-6-yl)((2R,6R)-4-(2-fluoro-4-methoxybenzoyl)-2,6-dimethylpiperazin-1-yl)methanone]: the IC50 turned out to be 11.6 µM.

For the molecule `COc1ccc(C(=O)N2C[C@@H](C)N(C(=O)c3ccc4c(c3)CCCO4)[C@H](C)C2)c(F)c1` [Compound 74, ((3R,5R)-4-(chroman-6-carbonyl)-3,5-dimethylpiperazin-1-yl)(2-fluoro-4-methoxyphenyl)methanone], the half-inhibitory concentration (IC50) is 15.8 µM.

`COc1ccc(C(=O)N2C[C@@H](C)N(C(=O)c3cccc(O)c3F)[C@H](C)C2)c(F)c1` [Compound 75, ((3R,5R)-4-(2-fluoro-3-hydroxybenzoyl)-3,5-dimethylpiperazin-1-yl)(2-fluoro-4-methoxyphenyl)methanone]: the IC50 amounted to 16.1 µM.

As to `COc1ccc(C(=O)N2C[C@@H](C)N(C(=O)c3ccc(S(C)(=O)=O)cc3F)[C@H](C)C2)c(F)c1` [Compound 76, ((3R,5R)-4-(2-fluoro-4-(methylsulfonyl)benzoyl)-3,5-dimethylpiperazin-1-yl)(2-fluoro-4-methoxyphenyl)methanone], the IC50 was determined as 16.7 µM.

Take `COc1ccc(C(=O)N2[C@H](C)CN(C(=O)c3c[nH]c4ccccc34)C[C@H]2C)c(F)c1` [Compound 77, ((2R,6R)-4-(1H-indole-3-carbonyl)-2,6-dimethylpiperazin-1-yl)(2-fluoro-4-methoxyphenyl)methanone]: the IC50 was determined as 18.9 µM.

Take `COc1ccc(C(=O)N2[C@H](C)CN(C(=O)Cc3c(C)[nH]c4ccccc34)C[C@H]2C)c(F)c1` [Compound 78, 1-((3R,5R)-4-(2-fluoro-4-methoxybenzoyl)-3,5-dimethylpiperazin-1-yl)-2-(2-methyl-1H-indol-3-yl)ethanone]: the 50% inhibitory concentration (IC50) worked out at 19.2 µM.

As to `COc1ccc(C(=O)N2C[C@@H](C)N(C(=O)c3ccc(OC)c(C)c3)[C@H](C)C2)c(F)c1` [Compound 79, ((2R,6R)-4-(2-fluoro-4-methoxybenzoyl)-2,6-dimethylpiperazin-1-yl)(4-methoxy-3-methylphenyl)methanone], the IC50 stood at 22.2 µM.

As to `COc1ccc(C(=O)N2C[C@@H](C)N(C(=O)c3ccc(-c4ccn(C)n4)cc3)[C@H](C)C2)c(F)c1` [Compound 80, ((3R,5R)-3,5-dimethyl-4-(4-(1-methyl-1H-pyrazol-3-yl)benzoyl)piperazin-1-yl)(2-fluoro-4-methoxyphenyl)methanone], the IC50 was determined as 22.9 µM.

`COc1ccc(C(=O)N2[C@H](C)CN(C(=O)c3c(C)cc(OC)cc3F)C[C@H]2C)c(F)c1` [Compound 81, ((2R,6R)-4-(2-fluoro-4-methoxy-6-methylbenzoyl)-2,6-dimethylpiperazin-1-yl)(2-fluoro-4-methoxyphenyl)methanone]: the IC50 came to 25.8 µM.

Turning to `COc1ccc(C(=O)N2[C@H](C)CN(C(=O)c3cc4c(OC)ccc(OC)c4[nH]3)C[C@H]2C)c(F)c1` [Compound 82, (4,7-dimethoxy-1H-indol-2-yl)((3R,5R)-4-(2-fluoro-4-methoxybenzoyl)-3,5-dimethylpiperazin-1-yl)methanone], the IC50 worked out at 26.4 µM.

Consider `COc1ccc(C(=O)N2[C@H](C)CN(C(=O)c3ccc4ccn(C)c4c3)C[C@H]2C)c(F)c1` [Compound 83, ((2R,6R)-2,6-dimethyl-4-(1-methyl-1H-indole-6-carbonyl)piperazin-1-yl)(2-fluoro-4-methoxyphenyl)methanone], for which the IC50 turned out to be 31 µM.

Regarding `COc1ccc(OC)c2[nH]c(C(=O)N3[C@H](C)CN(C(=O)Cc4cc5ccccc5[nH]4)C[C@H]3C)cc12` [Compound 84, 1-((3R,5R)-4-(4,7-dimethoxy-1H-indole-2-carbonyl)-3,5-dimethylpiperazin-1-yl)-2-(1H-indol-2-yl)ethanone], the IC50 turned out to be 32.1 µM.

For `COc1ccc(C(=O)N2C[C@@H](C)N(C(=O)c3cccc(O)c3)[C@H](C)C2)c(F)c1` [Compound 85, ((2R,6R)-4-(2-fluoro-4-methoxybenzoyl)-2,6-dimethylpiperazin-1-yl)(3-hydroxyphenyl)methanone], the IC50 came to 34.1 µM.
